According to patent US7202280B2, “Methods for the treatment and prevention of pancreatitis and for induction of liver regeneration” (priority 2002, dated 2007):
“And” between values parts separate entries of the source, which are not always exact repeats. Identical values can stand only once.

How the values were obtained:
[1] = tested on: rats; test: Toxicity of spermine derivatives in rats (deaths); format: in vivo, rat; conditions: 50 mg/kg twice/24 h
Source text: It is likely to be the case with the methylated analogues as well.

[2] = tested on: rats with arginine-induced pancreatitis; test: Arginine-induced pancreatitis; format: in vivo, rat
Description: FIG. 6 Plasma α-amylase activity in rats with arginine-induced pancreatitis after methylspermidine. The animals received […]-500 mg/kg) 24 h before sacrifice with or without methylspermidine (50 mg/kg) either as a single dose 4 h before arginine or as two doses 20 h and 4 h before arginine. Three to five animals in each group. Arg, Arginine. Me-Spd, methylspermidine. Administration of large quantities of arginine is known to cause acute, necrotizing pancreatitis in rats.

[3] = tested on: rats with cerulein-induced pancreatitis; test: Cerulein-induced pancreatitis; format: in vivo, rat
Description: FIG. 7 Effect of pancreatic-associated edema by methylspermidine in rats with cerulein-induced pancreatitis. The animals received cerulein 24 h before sacrifice with or without methylspermidine (50 mg/kg) as a single dose 4 h before cerulein. Three to five animals in each group. Me-Spd, methylspermidine. Administration of cerulein induces a non-necrotizing pancreatitis in rodents. Cerulein-induced pancreatitis is characterized by a pronounced increase in plasma/serum amylase activity.

[4] = tested on: SSAT transgenic rats (UKUR30); test: Treatment of zinc induced acute pancreatitis in SSAT transgenic rats: survival and severity (histology, plasma amylase, mortality); format: in vivo, rat; parameters: key to Edema: 0 (absent); 1 (minimal); 4 (maximal); conditions: for Edema / Necr. / P-amyl: single animals
Description: Formalin-fixed pancreatic specimens were embedded in paraffin, cut into 5-μm-thick slices, and stained with hematoxylin/eosin. The stained sections were coded and scored by the participating gastroenterologist (K.-H. H.) according to the method of Niederau et al. (Niederau, C., Liddle, R. A., Ferrell, L. D., and Grendell, J. H. (1986) J. Clin. Invest. 78, 1056–1063).
(§1) Transgenic UKUR30 female rats (weighting about 200 g) were used for the experiments. Pancreatitis was initiated with zinc 10 mg/kg treatment. Experiments were separated in five different parts (Exp. 1–5). Animals treated with α-MeSPD received 50 mg/kg i.p at the indicated time point(s). The pooled data from all of the experiment is shown in tables 4 A/B/C/D. First histological signs of pancreatic failure were evident within 6 h after the zinc. Pancreatic failure steadily increases until 24 hours when the first animals died. Within 48 hours mortality was almost 70% in control zinc treated rats.
(§2) Tables 4 A/B/C/D present the natural course of zinc induced pancreatitis. Histological scoring along with plasma amylase activity is shown as a measure of severity of pancreatitis. Tissue zinc and polyamine levels and SSAT activity were determined to verify the response of each animal to the treatment. No other data than the number of death animals is shown from deceased animals. Transgenic UKUR30 female rats weighting about 200 grams were used for the experiment. Zinc was injected i.p. 10 mg/kg to initiate acute pancreatitis. Animals treated with MeSpd received one 50 mg/kg dosage i.p. at the indicated time point(s). At indicated time points live animals were sacrificed and pancreas was subjected to further analysis. […] Values for polyamines are expressed as pmoles/mg/wet weight. SSAT pmoles/10 min/mg wet weight.

[5] = tested on: SSAT transgenic rats (UKUR30); test: Pancreatic zinc, SSAT activity and polyamine levels in zinc induced pancreatitis treated with MeSpd; format: in vivo; conditions: single animals
Description: as §1, with “rats. […].” for “rats.”
as §2

[6] = Zn 24 h, MeSpd 50 mg/kg i.p. at 3 h/8 h
[7] = Zn 24 h, MeSpd 50 mg/kg i.p. at 6 h/12 h
[8] = Zn 24 h, MeSpd 50 mg/kg i.p. at 12 h
[9] = Zn 48 h, MeSpd 50 mg/kg i.p. at 3 h/8 h
[10] = Zn 48 h, MeSpd 50 mg/kg i.p. at 4 h/24 h
[11] = Zn 48 h, MeSpd 50 mg/kg i.p. at 12 h/24 h

CC(N)CCNCCCCNCCC(C)N (stereo not drawn) [bis-α-methylspermine, 1,12-dimethylspermine]
deaths [1]: a number of rats died

CC(N)CCNCCCCN (stereo not drawn) [α-methylspermidine, 1-methylspermidine]
plasma amylase ([2]; arginine 250–500 mg/kg, single dose 50 mg/kg): significantly reduced the pancreatitis-associated increase in plasma amylase | plasma amylase levels ([2]; arginine 250–500 mg/kg, two repeated doses): fully normalized | histopathological changes in the pancreas ([2]; arginine-induced pancreatitis): prevented the histopathological changes | amylase levels ([3]; cerulein-induced pancreatitis): does not normalize amylase levels | pancreatitis-associated edema ([3]; cerulein, single dose 50 mg/kg): reduces the pancreatitis-associated edema | Edema [4, 6]: 0 (2×) and 2 (2×) | Necr. [4, 6]: 0 (0, 0–5%) (2×) and 3 (3, 35–50%) and 4 (4, >50%) | P-amyl [4, 6]: 2743 U/l and 20380 U/l and 11420 U/l and 2801 U/l | Edema [4, 7]: 0 (3×) and 1 (2×) and 2 (2×) and 3 and 4 | Necr. [4, 7]: 0 (0, 0–5%) (4×) and 4 (4, >50%) (4×) and 2 (2, 15–35%) | P-amyl [4, 7]: 2686 U/l and 2153 U/l and 2572 U/l and 30970 U/l and 42250 U/l and 30860 U/l and 28400 U/l and 5110 U/l and 25050 U/l | Edema [4, 8]: 1 and 2 (2×) and 3 | Necr. [4, 8]: 0 (0, 0–5%) and 4 (4, >50%) (2×) and 3 (3, 35–50%) | P-amyl [4, 8]: 3048 U/l and 17170 U/l and 31310 U/l and 18960 U/l | Mortality % ([4]; Zn 24 h, MeSpd treatment yes): 0% | Number of death animals ([4]; Zn 24 h, MeSpd treatment yes, 17 animals): 0 | Edema [4, 9]: 3 (2×) and 2 | Necr. [4, 9]: 4 (4, >50%) | P-amyl [4, 9]: 5867 U/l and 5117 U/l and 29880 U/l | Edema [4, 10]: 0 (3×) and 1 and 3 | Necr. [4, 10]: 0 (0, 0–5%) (4×) and 4 (4, >50%) | P-amyl [4, 10]: 1924 U/l and 2740 U/l and 2908 U/l and 2591 U/l and 3943 U/l | Edema [4, 11]: 3 (2×) and 0 and 2 | Necr. [4, 11]: 4 (4, >50%) (3×) and 0 (0, 0–5%) | P-amyl [4, 11]: 86840 U/l and 2693 U/l and 36470 U/l and 3382 U/l | Mortality % ([4]; Zn 48 h, MeSpd treatment yes): 8% | MeSpd (pancreas) [5, 6]: 1943 pmoles/mg/wet weight and 1425 pmoles/mg/wet weight and 907 pmoles/mg/wet weight and 0 pmoles/mg/wet weight | N^1AcSpd (pancreas) [5, 6]: 54 pmoles/mg/wet weight and 58 pmoles/mg/wet weight and 31 pmoles/mg/wet weight and 0 pmoles/mg/wet weight | PU (pancreas) [5, 6]: 3231 pmoles/mg/wet weight and 2820 pmoles/mg/wet weight and 2269 pmoles/mg/wet weight and 2159 pmoles/mg/wet weight | SPD (pancreas) [5, 6]: 1165 pmoles/mg/wet weight and 265 pmoles/mg/wet weight and 119 pmoles/mg/wet weight and 3405 pmoles/mg/wet weight | SPM (pancreas) [5, 6]: 299 pmoles/mg/wet weight and 128 pmoles/mg/wet weight and 69 pmoles/mg/wet weight and 441 pmoles/mg/wet weight | SSAT (pancreas) [5, 6]: 50 pmoles/10 min/mg wet weight and 91 pmoles/10 min/mg wet weight and 100 pmoles/10 min/mg wet weight and 18 pmoles/10 min/mg wet weight | MeSpd (pancreas) [5, 7]: 2268 pmoles/mg/wet weight and 3242 pmoles/mg/wet weight and 3098 pmoles/mg/wet weight and 745 pmoles/mg/wet weight and 798 pmoles/mg/wet weight and 954 pmoles/mg/wet weight and 834 pmoles/mg/wet weight and 1993 pmoles/mg/wet weight and 728 pmoles/mg/wet weight | N^1AcSpd (pancreas) [5, 7]: 113 pmoles/mg/wet weight and 45 pmoles/mg/wet weight and 43 pmoles/mg/wet weight and 66 pmoles/mg/wet weight and 71 pmoles/mg/wet weight and 98 pmoles/mg/wet weight and 134 pmoles/mg/wet weight and 20 pmoles/mg/wet weight and 59 pmoles/mg/wet weight | PU (pancreas) [5, 7]: 6768 pmoles/mg/wet weight and 6932 pmoles/mg/wet weight and 4915 pmoles/mg/wet weight and 2335 pmoles/mg/wet weight and 1932 pmoles/mg/wet weight and 2401 pmoles/mg/wet weight and 1911 pmoles/mg/wet weight and 3790 pmoles/mg/wet weight and 1935 pmoles/mg/wet weight | SPD (pancreas) [5, 7]: 478 pmoles/mg/wet weight and 1114 pmoles/mg/wet weight and 1297 pmoles/mg/wet weight and 108 pmoles/mg/wet weight and 96 pmoles/mg/wet weight and 105 pmoles/mg/wet weight and 84 pmoles/mg/wet weight and 1096 pmoles/mg/wet weight and 100 pmoles/mg/wet weight | SPM (pancreas) [5, 7]: 213 pmoles/mg/wet weight and 431 pmoles/mg/wet weight and 408 pmoles/mg/wet weight and 41 pmoles/mg/wet weight and 54 pmoles/mg/wet weight (2×) and 50 pmoles/mg/wet weight and 276 pmoles/mg/wet weight and 46 pmoles/mg/wet weight | SSAT (pancreas) [5, 7]: 1403 pmoles/10 min/mg wet weight and 37 pmoles/10 min/mg wet weight and 40 pmoles/10 min/mg wet weight and 10372 pmoles/10 min/mg wet weight and 3866 pmoles/10 min/mg wet weight and 5823 pmoles/10 min/mg wet weight and 6216 pmoles/10 min/mg wet weight and 1024 pmoles/10 min/mg wet weight and 5748 pmoles/10 min/mg wet weight | MeSpd (pancreas) [5, 8]: 1113 pmoles/mg/wet weight and 371 pmoles/mg/wet weight and 333 pmoles/mg/wet weight and 334 pmoles/mg/wet weight | N^1AcSpd (pancreas) [5, 8]: 16 pmoles/mg/wet weight and 57 pmoles/mg/wet weight and 65 pmoles/mg/wet weight and 42 pmoles/mg/wet weight | PU (pancreas) [5, 8]: 5328 pmoles/mg/wet weight and 3361 pmoles/mg/wet weight and 2782 pmoles/mg/wet weight and 3116 pmoles/mg/wet weight | SPD (pancreas) [5, 8]: 1360 pmoles/mg/wet weight and 124 pmoles/mg/wet weight and 153 pmoles/mg/wet weight and 126 pmoles/mg/wet weight | SPM (pancreas) [5, 8]: 479 pmoles/mg/wet weight and 47 pmoles/mg/wet weight and 61 pmoles/mg/wet weight and 45 pmoles/mg/wet weight | SSAT (pancreas) [5, 8]: 29 pmoles/10 min/mg wet weight and 6855 pmoles/10 min/mg wet weight and 4852 pmoles/10 min/mg wet weight and 6866 pmoles/10 min/mg wet weight | MeSpd (pancreas) [5, 9]: 646 pmoles/mg/wet weight and 1043 pmoles/mg/wet weight and 768 pmoles/mg/wet weight | N^1AcSpd (pancreas) [5, 9]: 43 pmoles/mg/wet weight and 21 pmoles/mg/wet weight and 29 pmoles/mg/wet weight | PU (pancreas) [5, 9]: 1538 pmoles/mg/wet weight and 1268 pmoles/mg/wet weight and 649 pmoles/mg/wet weight | SPD (pancreas) [5, 9]: 367 pmoles/mg/wet weight and 313 pmoles/mg/wet weight and 148 pmoles/mg/wet weight | SPM (pancreas) [5, 9]: 119 pmoles/mg/wet weight and 90 pmoles/mg/wet weight and 51 pmoles/mg/wet weight | SSAT (pancreas) [5, 9]: 92 pmoles/10 min/mg wet weight and 82 pmoles/10 min/mg wet weight and 90 pmoles/10 min/mg wet weight | MeSpd (pancreas) [5, 10]: 1066 pmoles/mg/wet weight and 2249 pmoles/mg/wet weight and 1415 pmoles/mg/wet weight and 1041 pmoles/mg/wet weight and 1493 pmoles/mg/wet weight | N^1AcSpd (pancreas) [5, 10]: 0 pmoles/mg/wet weight | PU (pancreas) [5, 10]: 1522 pmoles/mg/wet weight and 2416 pmoles/mg/wet weight and 1960 pmoles/mg/wet weight and 1744 pmoles/mg/wet weight and 1896 pmoles/mg/wet weight | SPD (pancreas) [5, 10]: 1344 pmoles/mg/wet weight and 1052 pmoles/mg/wet weight and 1928 pmoles/mg/wet weight and 2533 pmoles/mg/wet weight and 369 pmoles/mg/wet weight | SPM (pancreas) [5, 10]: 238 pmoles/mg/wet weight and 254 pmoles/mg/wet weight and 339 pmoles/mg/wet weight and 557 pmoles/mg/wet weight and 112 pmoles/mg/wet weight | SSAT (pancreas) [5, 10]: 10 pmoles/10 min/mg wet weight and 28 pmoles/10 min/mg wet weight and 17 pmoles/10 min/mg wet weight and 8 pmoles/10 min/mg wet weight and 75 pmoles/10 min/mg wet weight | MeSpd (pancreas) [5, 11]: 452 pmoles/mg/wet weight and 1053 pmoles/mg/wet weight and 560 pmoles/mg/wet weight and 629 pmoles/mg/wet weight | N^1AcSpd (pancreas) [5, 11]: 70 pmoles/mg/wet weight and 51 pmoles/mg/wet weight and 49 pmoles/mg/wet weight and 42 pmoles/mg/wet weight | PU (pancreas) [5, 11]: 889 pmoles/mg/wet weight and 7496 pmoles/mg/wet weight and 1078 pmoles/mg/wet weight and 1345 pmoles/mg/wet weight | SPD (pancreas) [5, 11]: 79 pmoles/mg/wet weight and 1571 pmoles/mg/wet weight and 165 pmoles/mg/wet weight and 456 pmoles/mg/wet weight | SPM (pancreas) [5, 11]: 35 pmoles/mg/wet weight and 422 pmoles/mg/wet weight and 61 pmoles/mg/wet weight and 141 pmoles/mg/wet weight | SSAT (pancreas) [5, 11]: 548 pmoles/10 min/mg wet weight and 42 pmoles/10 min/mg wet weight and 4391 pmoles/10 min/mg wet weight and 2001 pmoles/10 min/mg wet weight

CC(N)CCNCCCCNCCCN (stereo not drawn) [α-methylspermine, 1-methylspermine]
deaths [1]: a number of rats died
